Here are results for one molecule from patent US10752603B2, “Purification of oxydiphthalic anhydrides” (SABIC Global Technologies, B.V., priority 2018, dated 2020).

“Also recorded” adds a separate entry of the source.

This data set is described as follows: Color stability of ODPA after heat treatment (220 to 225° C., about 8 hours). As to conditions: 220 to 225° C. for about 8 hours, visual observation. The class given is physicochemical. The protocol: The color stability of the ODPA after subjecting the ODPA to heat treatment was also examined. The heat stability testing was performed on various ODPA samples as described in Table 7. The samples were tested using a 10 wt % solution of each sample in DMF and APHA values were recorded using a Macbeth colorimeter Each sample was heat-treated by exposing the sample to a temperature of 220 to 225° C. for about 8 hours. The samples were monitored for color changes during the heat exposure duration. Visual observations are recorded in Table 7, as well as the measured APHA color values.

For the molecule `O=C1OC(=O)c2cc(Oc3ccc4c(c3)C(=O)OC4=O)ccc21` [Example 74, reference compound], the “Qualitative color observations after exposure to heat” value was “no detectable color change; also recorded: No change observed”.
